# Reference: EP4813980A1, “EP300/CBP REGULATOR, AND PREPARATION METHOD THEREFOR AND USE THEREOF” (Miracure Biotechnology Limited, priority 2023, dated 2025)
# Legend:
# Assay in all cases: Cell growth inhibition, CellTiter-Glo, 72 h
# Type in all cases: cell-based
# 22RV1 cells = settings: 72 h culture, mean of N=2
# Method: (§1) 22RV1, vCap, MM1S and OPM-2 cells were cultured in RPMI-1640 medium (10% fetal bovine serum and 100 units of penicillin/streptomycin dual-antibody per mL were added to RPMI-1640) in a cell incubator at 37°C with 5% CO2, respectively. Cells in logarithmic growth phase were seeded into 96-well cell culture plates at 5×10^3 cells/100 µL/well and cultured overnight. Active compounds dissolved in DMSO at different concentrations were added with a final concentration of 0.5% DMSO. 1% Tween 20 was used as positive control and 0.5% DMSO was used as negative control. After 72 h of culture, an equal volume of CellTiter-Glo was added to each well, mixed by shaking for 2 min, and left standing at room temperature for 10 min. […] signal values were read with a microplate reader. Data were analyzed and graphs were generated using Prism 7.0. The values shown are mean ± SEM (N=2). […] The formula for inhibition rate is as follows: % Inhibition = (Icompound−IZPE)/(IHPE−IZPE) × 100 [formula]
# (§2) The X-axis is compound concentration (nM), and the Y-axis is % Inhibition.
# MM1S cells = settings: Homo sapiens, MM1.S, 72 h culture, mean of N=2
# Method: as §1, §2
# vCap cells = settings: 72 h culture, mean of N=2
# Method: as §1, §2
Compound,IC50 (22RV1 cells; Homo sapiens) [nM],IC50 (MM1S cells) [nM],IC50 (vCap cells; Homo sapiens) [nM],IC50 (22RV1 cells) [nM],IC50 (vCap cells) [nM]
CNC(=O)N1CCc2cc(C3CCN(CC4CCN(CCOc5cccc6c5CN(C5CCC(=O)NC5=O)C6=O)CC4)CC3)cc(N3CCCc4cc(-c5cnn(C)c5)c(C(F)F)cc43)c2C1 (stereo not shown) [Compound 2065],0.41,0.28,–,–,–
"CC(=O)N1Cc2cc(C3CCOCC3)cc(-c3cccc4cc(-c5ccc(C(=O)N6CCC(Nc7cccc8c7C(=O)N(C7CCC(=O)NC7=O)C8=O)CC6)nc5)ncc34)c2C1 (stereo not shown) [Compound 2074, 4-((1-(5-(8-(2-acetyl-6-(tetrahydro-2H-pyran-4-yl)isoindolin-4-yl)isoquinolin-3-yl)pyridinecarbonyl)piperidin-4-yl)amino)-2-(2,6-dioxopiperidin-3-yl)isoindoline-1,3-dione]",> 10000,426,–,–,–
"CC(=O)n1cc2cc(C3CCN(C(=O)CCCCCCCNc4ccc5c(c4)n(C)c(=O)n5C4CCC(=O)NC4=O)CC3)cc(N3CCCc4cc(-c5cnn(C)c5)c(C(F)F)cc43)c2c1 (stereo not shown) [Compound 2004, 3-[5-[[8-[4-[2-acetyl-7-[7-(difluoromethyl)-6-(1-methylpyrazol-4-yl)-3,4-dihydro-2H-quinolin-1-yl]isoindol-5-yl]piperidin-1-yl]-8-oxooctyl]amino]-3-methyl-2-oxobenzoimidazol-1-yl]piperidine-2,6-dione]",0.03,–,0.12,–,–
CC(=O)N1Cc2cc(C3CCN(C(=O)CCCCCCCCNc4ccc5c(c4)n(C)c(=O)n5C4CCC(=O)NC4=O)CC3)cc(N3CCCc4cc(-c5cnn(C)c5)c(C(F)F)cc43)c2C1 (stereo not shown) [Compound 2009],0.04,–,0.01,–,–
"3-{5-[8-(4-{2-acetyl-7-[7-(difluoromethyl)-6-(1-methylpyrazol-4-yl)-3,4-dihydro-2H-quinolin-1-yl]-1,3-dihydroisoindol-5-yl}piperidin-1-yl)-8-oxo-1-yn-1-yl]-3-methyl-2-oxo-1,3-benzodiazol-1-yl}piperidine-2,6-dione [Compound 2030]",–,–,–,0.34,0.1
CC(=O)N1Cc2cc(C3CCN(CCN4CCC(CNc5ccc6c(c5)CN(C5CCC(=O)NC5=O)C6=O)CC4)CC3)cc(N3CCCc4cc(-c5cnn(C)c5)c(C(F)F)cc43)c2C1 (stereo not shown) [Compound 2063],0.33,0.28,–,–,–
CC(=O)N1Cc2cc(C3CCN(C(=O)CCCCCCNc4ccc5c(c4)n(C)c(=O)n5C4CCC(=O)NC4=O)CC3)cc(N3CCCc4cc(-c5cnn(C)c5)c(C(F)F)cc43)c2C1 (stereo not shown) [Compound 2027],0.04,–,0.01,–,–
CNC(=O)N1CCc2cc(C3CCN(CC4CCN(CCCc5cccc6c5C(=O)N(C5CCC(=O)NC5=O)C6=O)CC4)CC3)cc(N3CCCc4cc(-c5cnn(C)c5)c(C(F)F)cc43)c2C1 (stereo not shown) [Compound 2022],0.3,–,2.12,–,–
CC(=O)N1Cc2cc(C3CCN(CCN4CCOC(CNc5cccc6c5C(=O)N(C5CCC(=O)NC5=O)C6=O)C4)CC3)cc(N3CCCc4cc(-c5cnn(C)c5)c(C(F)F)cc43)c2C1 (stereo not shown) [Compound 2001],0.06,–,0.154,–,–
CNC(=O)N1CCc2cc(C3CCN(Cc4ccc(CCOc5cccc6c5CN(C5CCC(=O)NC5=O)C6=O)cc4)CC3)cc(N3CCCc4cc(-c5cnn(C)c5)c(C(F)F)cc43)c2C1 (stereo not shown) [Compound 2012],0.62,–,2.31,–,–
CC(=O)N1Cc2cc(C3CCN(CCC4CCN(c5ccc6c(c5)CN(C5CCC(=O)NC5=O)C6=O)CC4)CC3)cc(N3CCCc4cc(-c5cnn(C)c5)c(C(F)F)cc43)c2C1 (stereo not shown) [Compound 2069],0.38,0.36,–,–,–
"CC(=O)N1Cc2cc(C3CCC(N4C(=O)C=CC4=O)CC3)cc(N3CCCc4cc(-c5cnn(C)c5)c(C(F)F)cc43)c2C1 (stereo not shown) [Compound 1385, 1-(4-{2-acetyl-7-[7-(difluoromethyl)-6-(1-methylpyrazol-4-yl)-3,4-dihydro-2H-quinolin-1-yl]-1,3-dihydroisoindol-5-yl}cyclohexyl)pyrrole-2,5-dione]",358,–,144,–,–
"CC(=O)N1CCc2cc(C3CCN(C(=O)CCCCCCCNc4ccc5c(c4)C(=O)N(C4CCC(=O)NC4=O)C5=O)CC3)cc(N3CCCc4cc(-c5cnn(C)c5)c(C(F)F)cc43)c2C1 (stereo not shown) [Compound 2025, 5-[[8-[4-[2-acetyl-8-[7-(difluoromethyl)-6-(1-methylpyrazol-4-yl)-3,4-dihydro-2H-quinolin-1-yl]-3,4-dihydro-1H-isoquinolin-6-yl]-1-piperidinyl]-8-oxooctyl]amino]-2-(2,6-dioxo-3-piperidinyl)isoindoline-1,3-dione]",3890,–,7530,–,–
CC(=O)N1Cc2cc(C3CCN(CCN4CCC(COc5cccc6c5CN(C5CCC(=O)NC5=O)C6=O)CC4)CC3)cc(N3CCCc4cc(-c5cnn(C)c5)c(C(F)F)cc43)c2C1 (stereo not shown) [Compound 2055],0.54,–,0.26,–,–
"CC(=O)N1Cc2cc(C3CCN(Cc4ccc(COc5cccc6c5CN(C5CCC(=O)N(COC(=O)CN)C5=O)C6=O)cc4)CC3)cc(N3CCCc4cc(-c5cnn(C)c5)c(C(F)F)cc43)c2C1 (stereo not shown) [Compound 2064, (3-(4-((4-((2-acetyl-7-(7-(difluoromethyl)-6-(1-methyl-1H-pyrazol-4-yl)-3,4-dihydroquinolin-1(2H)-yl)isoindol-5-yl)piperidin-1-yl)methyl)benzyl)oxy)-1-oxoisoindolin-2-yl)-2,6-dioxopiperidin-1-yl)methyl glycinate]",0.23,–,0.35,–,–
CC(=O)N1Cc2cc(C3CCN(Cc4ccc(CCOc5cccc6c5CN(C5CCC(=O)NC5=O)C6=O)cc4)CC3)cc(N3CCCc4cc(-c5cnn(C)c5)c(C(F)F)cc43)c2C1 (stereo not shown) [Compound 2003],0.69,–,0.19,–,–
CC(=O)N1Cc2cc(C3CCN(C(=O)CCCCCCNc4cccc5c4n(C)c(=O)n5C4CCC(=O)NC4=O)CC3)cc(N3CCCc4cc(-c5cnn(C)c5)c(C(F)F)cc43)c2C1 (stereo not shown) [Compound 2007],0.04,–,0.01,–,–
"CC(=O)n1cc2cc(C3CCN(C(=O)CN4CCC(C#Cc5cccc6c5n(C)c(=O)n6C5CCC(=O)NC5=O)CC4)CC3)cc(N3CCCc4cc(-c5cnn(C)c5)c(C(F)F)cc43)c2c1 (stereo not shown) [Compound 2048, 3-(4-((1-(2-(4-(2-acetyl-7-(7-(difluoromethyl)-6-(1-methyl-1H-pyrazol-4-yl)-3,4-dihydroquinolin-1(2H)-yl)isoindol-5-yl)piperidin-1-yl)-2-oxoethyl)piperidin-4-yl)ethynyl)-3-methyl-2-oxo-2,3-dihydro-1H-benzo[d]imidazol-1-yl)piperidine-2,6-dione]",1.84,–,1.85,–,–
"CC(=O)n1cc2cc(C3CCN(C(=O)CCCCCCOc4ccc5c(c4)n(C)c(=O)n5C4CCC(=O)NC4=O)CC3)cc(N3CCCc4cc(-c5cnn(C)c5)c(C(F)F)cc43)c2c1 (stereo not shown) [Compound 2029, 3-(5-((7-(4-(2-acetyl-7-(7-(difluoromethyl)-6-(1-methyl-1H-pyrazol-4-yl)-3,4-dihydroquinolin-1(2H)-yl)isoindol-5-yl)piperidin-1-yl)-7-oxoheptyl)oxy)-3-methyl-2-oxo-2,3-dihydro-1H-benzo[d]imidazol-1-yl)piperidine-2,6-dione]",0.04,–,0.03,–,–
CC(=O)N1Cc2cc(C3CCN(Cc4ccc(COc5cccc6c5CN(C5CCC(=O)N(CO)C5=O)C6=O)cc4)CC3)cc(N3CCCc4cc(-c5cnn(C)c5)c(C(F)F)cc43)c2C1 (stereo not shown) [Compound 2053],1.02,–,0.36,–,–
